In patent US20110251240A1, “Dosing Regimen of Flavopiridol for Treating Cancer” (OHIO STATE UNIVERSITY RESEARCH FOUNDATION, priority 2005, published 2011):
Entries after “also recorded” stand apart in the source; their conditions may differ. Where a name gives a salt, the structure may show the parent alone. Read-outs that look alike come from different tables or passages of the source.

Legend:
[1] = format: in vitro ADME; details: bovine
Text: However, despite the promising pre-clinical results with flavopiridol in CLL and virtually all hematologic malignancies, the efficacy of flavopiridol in treating CLL in all of the clinical studies reported thus far are disappointing. […] See for example, Byrd J. C. et al., “Treatment of Relapsed Chronic Lymphocytic Leukemia by 72-hour Continuous Infusion or 1-Hour Bolus Infusion of Flavopiridol: Results from Cancer and Leukemia Group B Study 19805,” Clin. Cancer Res. 2005; 11(11) Jun. 1, 2005, 4176-4181, and references cited therein. The schedules selected in these unsuccessful trials were modeled after in vitro studies performed in fetal bovine serum-based media.
Based upon the poor clinical results in all the trials reported to date with flavopiridol, the present invention contemplated the possibility that differential protein binding could exist between these two culture media. […] Additionally, the 1-hour LC50 concentration for CLL cells in human serum was generally not obtained in the solid tumor phase I trial exploring this schedule. Thus, the prolonged continuous infusion or bolus dosing schedules previously explored in CLL and NHL may not achieve pharmacologically effective drug concentrations of flavopiridol, thereby explaining the absence of activity in the continuous infusion schedules and the marginal activity with the IV bolus schedule. […]

[2] = test system: patients with CLL or small lymphocytic lymphoma; test: Example 1 phase I trial: toxicity; format: in vivo
Description: Subjects: All patients provided written informed consent. […] Flavopiridol was administered via a central venous catheter. […] The ability to perform bedside emergent dialysis was assured.
Toxicity Observed with Flavopiridol: Six patients were initially treated in dose level 1 (30 mg/m^2 bolus followed by 30 mg/m^2 4-hour infusion), with one patient having dose limiting toxicity (neutropenic fever). Dose escalation proceeded to dose level 2, with three patients being treated. […] On autopsy, extensive apoptosis/necrosis of diffuse intra-abdominal lymphadenopathy was found. No additional patients were treated at this dose, but patient one of dose level 2, who previously had not experienced TLS at the 80 mg/m^2/dose, developed this toxicity on day 1 of cycle 2 while receiving a 60 mg/m^2 dose. All treatment was put on hold and an aggressive monitoring mechanism was put into place. Fourteen additional patients were treated at the level 1 dose utilizing this protocol. While biochemical evidence of TLS was present in most patients receiving therapy, only one developed significant TLS that required temporary dialysis for medically uncontrollable hyperkalemia on day 1 of therapy. While grade 1 (n=11) or 2 (n=6) diarrhea occurred in the majority of patients treated at the level 1 dose, this was generally short-lived. Similarly, transient grade 1 (n=13) or grade 2 (n=6) fatigue was observed.

[3] = test system: patients with CLL or small lymphocytic lymphoma; test: Example 1 phase I trial: response (NCI 96 criteria); format: in vivo, human
Text: (§1) Subjects: All patients provided written informed consent. Patients had CLL or small lymphocytic lymphoma and required therapy according to the NCI criteria. […] Enrollment requirements included: age older than 17 years, symptomatic by the NCI 96 criteria, platelet count greater than 49×10^9/L, ECOG performance status of 2 or less, no active infection or inflammatory bowel disease, and not pregnant. The serum creatinine and total bilirubin levels were required to be no more than 2.0 times the normal value. Design, Treatment and Dose Modifications: This study utilized a modified phase I design, enrolling three to six patients per level until two of the first six patients experienced dose limiting toxicity. Expansion of the dose level below this occurred to a minimum of six patients to assure safety for phase II investigation. Flavopiridol was administered via a central venous catheter. The schedule of flavopiridol included receiving 50% of the dose as a 30-minute bolus infusion and the remaining 50% dose as a 4-hour infusion every week for four consecutive weeks, followed by two weeks off. The total dose administered in level 1 was 60 mg/m^2 (i.e. 30 mg/m^2 as 30 minute bolus followed by 30 mg/m^2 4-hour continuous infusion). In level 2 the dose was 80 mg/m^2 (i.e. 40 mg/m^2 bolus and 40 mg/m^2 infusion). All patients received allopurinol 300 mg/day beginning one day prior to initiation of treatment and continued during therapy. All patients received prophylactic anti-viral and Pneumocystis carinii pneumonia therapy as described previously during and for six months following completion of therapy. […] Aggressive management of hyperkalemia including kayexalate therapy, insulin and glucose therapy, and calcium therapy was employed according to an established protocol. The ability to perform bedside emergent dialysis was assured. Prophylactic rasburicase was utilized in patients with bulky lymphadenopathy or high lymphocyte counts. Following five treatments with flavopiridol, treatment was transitioned to outpatient status with two hours of hydration before and through therapy with abbreviated laboratory monitoring. Patients could discontinue therapy for stable disease without improvement after two cycles (eight treatments). Otherwise, patients continued therapy in the absence of progression or toxicity that prohibited further treatment for a maximum of six cycles (24 treatments) of flavopiridol. Patients were evaluated for response after two, four, and six cycles of therapy. Dose Limiting Toxicity: Dose limiting toxicity was defined as non-hematologic toxicity of grade 3 or greater severity (excluding transient liver function abnormalities, transient non-life-threatening electrolyte abnormalities, fatigue, or diarrhea that resolve within four days), or in some case grade 2 toxicity (i.e. irreversible renal, chronic pulmonary, neurologic, or cardiac toxicity). Hematologic toxicity was dose limiting only if grade 4 thrombocytopenia or neutropenia persisted for seven days or greater. The NCI Common Toxicity Criteria was used to grade non-hematologic toxicity and the NCI 96 CLL criteria for hematologic toxicity. See, Cheson B. D., et al. “National Cancer Institute-sponsored Working Group guidelines for chronic lymphocytic leukemia: revised guidelines for diagnosis and treatment,” Blood 1996; 87:4990-7. Assessment of Response: Criteria for response and progression utilized the Revised NCI-sponsored Working Group Guidelines as mentioned above. As specified by these guidelines, a response had to be maintained for a period of two months.

[4] = test system: Mcl-1; test: Example 1 cellular pharmacodynamics: immunoblot of Mcl-1 in primary CLL cells during treatment; format: in vivo, human
Text: (§2) Subjects: All patients provided written informed consent. Patients had CLL or small lymphocytic lymphoma and required therapy according to the NCI criteria. […] Enrollment requirements included: age older than 17 years, symptomatic by the NCI 96 criteria, platelet count greater than 49×10^9/L, ECOG performance status of 2 or less, no active infection or inflammatory bowel disease, and not pregnant. The serum creatinine and total bilirubin levels were required to be no more than 2.0 times the normal value. Design, Treatment and Dose Modifications: This study utilized a modified phase I design, enrolling three to six patients per level until two of the first six patients experienced dose limiting toxicity. Expansion of the dose level below this occurred to a minimum of six patients to assure safety for phase II investigation. Flavopiridol was administered via a central venous catheter. The schedule of flavopiridol included receiving 50% of the dose as a 30-minute bolus infusion and the remaining 50% dose as a 4-hour infusion every week for four consecutive weeks, followed by two weeks off. The total dose administered in level 1 was 60 mg/m^2 (i.e. 30 mg/m^2 as 30 minute bolus followed by 30 mg/m^2 4-hour continuous infusion). In level 2 the dose was 80 mg/m^2 (i.e. 40 mg/m^2 bolus and 40 mg/m^2 infusion). […] Patients were evaluated for response after two, four, and six cycles of therapy. […]

[5] = test system: RNA polymerase II; test: Example 1 cellular pharmacodynamics: RNA polymerase II serine-5 phosphorylation in primary CLL cells during treatment; format: in vivo, human; details: eight patients examined
Text: as §2

[6] = Example 1 plasma pharmacokinetics (LC/MS); details: for half-life: plasma, intravenous
Text: as §1

[7] = test system: patients with CLL; details: human, in vivo
Text: (§3) Fifty-six patients were enrolled in this clinical trial with the median prior therapies being 4 and the majority being fludarabine-refractory. […] Cohort 1 was expanded with aggressive TLS prophylaxis. Of the 20 patients in cohort 1, 8 (40%) attained a partial response (PR) with median response duration exceeding 12 months. […] Cohort 3 and 4 did this (Table 4) with acceptable toxicity. Cohort 3 included 19 patients of whom 14 were escalated with the 5th dose. […] Ten (53%) of patients attained a partial response. […] TLS risk factors were examined for the first treatment dose in cohorts 1-3. WBC of ≧200×10^9/L were more frequently associated with TLS (5 of 8 pts) versus those with WBC<200×10^9/L (1 of 34 pts). Cohort 4 excludes pts with WBC≧200×10^9/L and currently includes 14 pts. Safety has been acceptable with only 1 case of TLS. Response assessment for cohort 4 is underway, with anti-tumor activity appearing similar to that observed in cohort 3.

[8] = test system: patients with CLL; test: Example 2 clinical trial: response; format: in vivo, human
Text: as §3

[9] = Example 2 clinical trial: plasma Cmax; format: in vivo; details: human, intravenous
Text: as §3

[10] = test system: relapsed CLL; details: cited from earlier work; for clinical activity / response: CLL, hydrochloride
[11] = test system: CLL cells; test: cells; format: cell-based; details: Homo sapiens, CLL cell
Text: Based upon the poor clinical results in all the trials reported to date with flavopiridol, the present invention contemplated the possibility that differential protein binding could exist between these two culture media. […] Additionally, the 1-hour LC50 concentration for CLL cells in human serum was generally not obtained in the solid tumor phase I trial exploring this schedule. Thus, the prolonged continuous infusion or bolus dosing schedules previously explored in CLL and NHL may not achieve pharmacologically effective drug concentrations of flavopiridol, thereby explaining the absence of activity in the continuous infusion schedules and the marginal activity with the IV bolus schedule. Given the novel mechanism of action of flavopiridol, as well as its ability to induce apoptosis independent of p53 dysfunction and modulate critical anti-apoptotic proteins such as Mcl-1 in vitro, and utilizing pharmacokinetic modeling a new dosing regimen in accordance with this invention was developed.

[12] = 23 CLL patients, 30-min bolus + 4-h infusion
[13] = Cohort 1, 30 mg/m^2 + 30 mg/m^2, 20 pts
[14] = Cohort 2, 40 mg/m^2 + 40 mg/m^2, 3 pts
[15] = cohort 1, 30 mg/m^2 + 30 mg/m^2
[16] = cohort 3 at the escalated doses (30 mg/m^2 + 50 mg/m^2)

CN1CCC(c2c(O)cc(O)c3c(=O)cc(-c4ccccc4Cl)oc23)[C@H](O)C1.Cl (stereo partly drawn) [Flavopiridol, (cis-5,7-dihydroxy-2-(2-chlorophenyl)-8-[4-(3-hydroxy-1-methyl)-piperidinyl]-1-benzopyran-4-one) hydrochloride]
free drug level [1]: 63-100%
toxicity in patient three at dose level 2 ([2]; 40 mg/m^2 bolus + 40 mg/m^2 infusion, day 1): TLS complicated by uncontrollable hyperkalemia and subsequent fatal asystole
Number of patients with AST Elevation Grade 5 [2, 12]: 0
Number of patients with Anemia Grade 5 [2, 12]: 0
Number of patients with Arthralgias Grade 5 [2, 12]: 0
Number of patients with Diarrhea Grade 5 [2, 12]: 0
Number of patients with Dyspnea Grade 5 [2, 12]: 0
Number of patients with Edema Grade 5 [2, 12]: 0
Number of patients with Fatigue Grade 5 [2, 12]: 0
Number of patients with Hypokalemia Grade 5 [2, 12]: 0
Number of patients with Infection Grade 3 [2, 12]: 5
Number of patients with Infection Grade 4 [2, 12]: 0
Number of patients with Infection Grade 5 [2, 12]: 0
Number of patients with Neutropenia Grade 5 [2, 12]: 0
Number of patients with Syncope Grade 5 [2, 12]: 0
Number of patients with Thrombocytopenia Grade 5 [2, 12]: 0
Number of patients with Tumor Lysis Syndrome Grade 5 [2, 12]: 1
Percentage of patients with Infection Grade 3 [2, 12]: (22%)
Percentage of patients with Tumor Lysis Syndrome Grade 5 [2, 12]: 4%
patients with grade 1 diarrhea ([2]; human, in vivo): 11
patients with grade 2 diarrhea ([2]; human, in vivo): 6
patients with transient grade 1 fatigue ([2]; human, in vivo): 13
patients with transient grade 2 fatigue ([2]; human, in vivo): 6
patients developing significant TLS that required temporary dialysis ([2]; in vivo): one
duration of partial response in patient two at dose level 2 ([3]; 40 mg/m^2 bolus + 40 mg/m^2 infusion): > 13 month
patients attaining a partial response (NCI 96 criteria), number ([3]; among the 23 patients enrolled): ten
patients attaining a partial response (NCI 96 criteria), percentage ([3]; among the 23 patients enrolled): 43%
responding patients relapsed ([3]; of ten responders, at eight and sixteen months): two
responding patients remaining in continuous remission ([3]; of ten responders, at five to 14+ months): Eight
patients experiencing a 50% or greater reduction in lymphadenopathy ([3]; of the nine patients with measurable lymphadenopathy, by day 8 of cycle 1): eight
patients with significant modulation of Mcl-1 ([4]; of the five non-responding patients examined): None
patients with decreased expression of Mcl-1 with treatment ([4]; of three responding patients examined): two
change in serine-5 phosphorylation of RNA polymerase II [5]: no change
CL ([6]; 30 + 30 mg/m^2 (n = 20), Mean ± S.D.): 14.5 ± 6.5 L/hr/m^2
inter-patient variability of Cmax ([6]; human, in vivo): two to three-fold
Cmax ([6]; human, in vivo, 80 mg/m^2): 4400 nM
half-life ([6]; human, t1/2, 30 + 30 mg/m^2 (n = 20), Mean ± S.D.): 14 ± 10.2 h
half-life ([6]; human, terminal half-life, mean±S.D., after the end of the 4-hour CIVI): 14 ± 10.2 h
half-life ([6]; human, terminal half-life, range, after the end of the 4-hour CIVI): 1.1 to 42.5 h
cases of TLS [7]: 1
Response Rate (partial response), number of patients [8, 13]: 8
Response Rate (partial response), percentage [8, 13]: 40%
Response Rate, number of patients [8, 14]: 1
Response Rate, percentage [8, 14]: 33%
Response Rate (partial response), percentage ([8]; Cohort 3, 30 + 30 mg/m^2 dose 1-4 then 30 + 50 mg/m^2, 19 pts): 53%
median response duration ([8]; cohort 1 responders): exceeding 12 months
tumor cytoreduction with dose escalation ([8]; cohort 3, 14 patients escalated with the 5th dose): Increased tumor cytoreduction was observed in a majority of patients
Cmax at 0.5 hr [9, 15]: 2080 nM
Cmax at 4.5 hr [9, 15]: 960 nM
Cmax at 0.5 hr [9, 16]: 1950 nM
Cmax at 4.5 hr [9, 16]: 1540 nM
response rate ([10]; 1-hour bolus, relapsed CLL): 11%
clinical activity / response ([10]; 24-hour infusion): No activity; also recorded: no patients with CLL responded
clinical activity / response ([10]; 72-hour continuous infusion): No activity; also recorded: no patients with CLL responded

CN1CC[C@H](c2c(O)cc(O)c3c(=O)cc(-c4ccccc4Cl)oc23)[C@H](O)C1 [Flavopiridol, (cis-5,7-dihydroxy-2-(2-chlorophenyl)-8-[4-(3-hydroxy-1-methyl)-piperidinyl]-1-benzopyran-4-one) hydrochloride]
CC50 ([11]; 1 h, read-out: 1-hour LC50 required to induce apoptosis in CLL cells, 1-hour exposure, fetal calf serum): 0.67 µM
CC50 ([11]; 1 h, read-out: 1-hour LC50 required to induce apoptosis in CLL cells, 1-hour exposure, human serum): 3.51 µM
CC50 ([11]; 24 h, read-out: 24-hour LC50 required to induce apoptosis in CLL cells, 24-hour exposure, fetal calf serum): 0.12 µM
CC50 ([11]; 24 h, read-out: 24-hour LC50 required to induce apoptosis in CLL cells, 24-hour exposure, human serum): 0.47 µM
